Laboratory results from ChEMBL document CHEMBL6182937, “Design, Synthesis, and Anti-ischemic Stroke Activity Evaluation of Novel GSNOR Inhibitors” (J Med Chem, 2025).
The source made the active and inactive calls. The calls are words filed in the database; no cut-off is given here.

Columns and labels:
Homo sapiens [1] = organism: Homo sapiens; assay: Inhibition of GSNOR (unknown origin) at 1 uM in presence of NADH incubated for 10 mins by microplate reader analysis relative to control
[2] = Inhibition of GSNOR (unknown origin) in presence of NADH incubated for 10 mins by microplate reader analysis; parameters: species or system Homo sapiens
Rattus norvegicus [3] = assay: Neuroprotective activity against tMCAO- induced brain injury in Sprague-Dawley rat model assessed as reduction in infarct volume at 5 mg/kg, iv measured up to 24 hrs by TTC staining based analysis (reference value: 36.35 +/- 4.05%); format: functional; parameters: scale not given: the % may be the effect or the level left
Rattus norvegicus [4] = assay: Neuroprotective activity against tMCAO- induced brain injury in Sprague-Dawley rat model assessed as reduction in infarct volume at 10 mg/kg, iv measured up to 24 hrs by TTC staining based analysis (reference value: 36.35 +/- 4.05%); format: functional; parameters: scale not given: the % may be the effect or the level left
SH-SY5Y [5] = assay: Neuroprotective activity against OGD/R-induced human […] cell injury model assessed as increase in cell viability at 10 uM measured for 24 hrs by CCK-8 assay; format: functional, cell-based
Homo sapiens [6] = organism: Homo sapiens; assay: Inhibition of GSNOR (unknown origin) at 10 uM relative to control
[7] = Half life in male C57BL/6 mouse at 2 mg/kg, iv by LC-MS/MS analysis; format: ADME, organism-based; conditions: in vivo
[8] = Tmax in Sprague-Dawley rat at 10 mg/kg, iv by LC-MS/MS analysis; format: ADME, organism-based; conditions: in vivo
SH-SY5Y [9] = assay: Neuroprotective activity against OGD/R-induced human […] cell injury model assessed as cell survival measured for 24 hrs by CCK-8 assay; format: functional, cell-based; conditions: dose 1-10 µM
[10] = Permeability of compound across apical to basal side in human Caco-2 cells at 10 uM incubated for 120 mins by LC-MS/MS analysis; format: ADME, cell-based; conditions: caco-2, 2 h
[11] = MRT (0 to t) in male C57BL/6 mouse at 10 mg/kg, po by LC-MS/MS analysis; format: ADME, organism-based; conditions: in vivo
[12] = Metabolic stability in rat liver microsomes assessed as intrinsic clearance preincubated for 5 mins followed by NADPH addition and measured up to 60 mins by LC-MS/MS analysis; format: ADME, Microsome; conditions: time < 65 min, read-out: CLH
[13] = Stability in rat plasma assessed as half life at 1 uM incubated up to 120 mins by LC-MS/MS analysis; format: ADME, cell-free
[14] = Oral bioavailability in male C57BL/6 mouse at 10 mg/kg by LC-MS/MS analysis; format: ADME, organism-based; conditions: in vivo
SH-SY5Y [15] = assay: Cytotoxicity against human SH-SY5Y cells up to 40 uM incubated for 24 hrs by CCK-8 assay; format: functional, cell-based
Rattus norvegicus [16] = assay: Neuroprotective activity against tMCAO- induced brain injury in Sprague-Dawley rat model assessed as upregulation of clstn1 level in brain at 5 mg/kg, iv measured after 24 hrs by LC-MS/MS analysis; format: functional, organism-based
[17] = Half life in Sprague-Dawley rat at 10 mg/kg, iv by LC-MS/MS analysis; format: ADME, organism-based; conditions: in vivo
[18] = Cmax in Sprague-Dawley rat at 10 mg/kg, iv by LC-MS/MS analysis; format: ADME, organism-based; conditions: in vivo
Rattus norvegicus [19] = assay: Neuroprotective activity against tMCAO- induced brain injury in Sprague-Dawley rat model assessed as reduction in neurological score at 10 mg/kg, iv measured up to 24 hrs Longa scale analysis; format: functional, organism-based
[20] = MRT (0 to t) in Sprague-Dawley rat at 10 mg/kg, iv by LC-MS/MS analysis; format: ADME, organism-based; conditions: in vivo
[21] = Half life in male C57BL/6 mouse at 10 mg/kg, po by LC-MS/MS analysis; format: ADME, organism-based; conditions: in vivo
[22] = Clearance in Sprague-Dawley rat at 10 mg/kg, iv by LC-MS/MS analysis; format: ADME, organism-based; conditions: in vivo
[23] = Metabolic stability in rat liver microsomes assessed as half life preincubated for 5 mins followed by NADPH addition and measured up to 60 mins by LC-MS/MS analysis; format: ADME, Microsome; conditions: time < 65 min
[24] = MRT (0 to t) in male C57BL/6 mouse at 2 mg/kg, iv by LC-MS/MS analysis; format: ADME, organism-based; conditions: in vivo
[25] = AUC (0 to t) in Sprague-Dawley rat at 10 mg/kg, iv by LC-MS/MS analysis; format: ADME, organism-based; conditions: in vivo
Rattus norvegicus [26] = assay: Neuroprotective activity against tMCAO- induced brain injury in Sprague-Dawley rat model assessed as reduction in neurological score at 5 mg/kg, iv measured up to 24 hrs Longa scale analysis; format: functional, organism-based
Rattus norvegicus [27] = assay: Neuroprotective activity against tMCAO- induced brain injury in Sprague-Dawley rat model assessed as […] at 5 mg/kg, iv measured up to 24 hrs; format: functional, organism-based

Cc1cc(C(N)=O)ccc1-n1c(-c2ccc(-c3cn(C)nc3C)cc2)cc2ccc(C(=O)O)cc21
inhibition (Homo sapiens [1]): 2.44%

N#Cc1ccc(Cn2c(-c3ccc(-n4ccnc4)cc3)cc3ccc(C(=O)O)cc32)cc1F
inhibition (Homo sapiens [1]): 88.9%

N#Cc1cccc(Cn2c(-c3ccc(-n4ccnc4)cc3)cc3ccc(C(=O)O)cc32)c1
IC50 [2]: 102 nM
inhibition (Homo sapiens [1]): 84.4%

NC(=O)c1ccc(-n2c(-c3ccc(-n4ccnc4)cc3)cc3ccc(C(=O)O)cc32)cc1Br
inhibition (Homo sapiens [1]): 76.6%

NC(=O)c1ccc(-n2c(-c3ccc(-n4ccnc4)cc3)cc3ccc(C(=O)O)cc32)cc1O
IC50 [2]: 60.3 nM
inhibition (Homo sapiens [1]): 97%

Cc1cc(C(N)=O)ccc1-n1c(CCC(=O)O)ccc1-c1ccc(-n2ccnc2)cc1 [N6022]
IC50 [2]: 84.7 nM
Activity (Rattus norvegicus [3]): 25.26%
Activity (Rattus norvegicus [4]): 25.26%
Activity (SH-SY5Y [5]): Active
inhibition (Homo sapiens [1]): 90.3%

Cc1cc(C(N)=O)ccc1-n1c(-c2ccc(-c3cccnc3)cc2)cc2ccc(C(=O)O)cc21
inhibition (Homo sapiens [1]): 22.2%

NC(=O)c1ccc(-n2c(-c3ccc(-n4ccnc4)cc3)cc3ccc(C(=O)O)cc32)cc1Cl
IC50 [2]: 51.1 nM
inhibition (Homo sapiens [1]): 93.3%

Cc1cc(C(N)=O)ccc1-n1c(-c2ccc(N3CCOCC3)cc2)cc2ccc(C(=O)O)cc21
inhibition (Homo sapiens [1]): -0.76%

O=C(O)c1ccc2cc(-c3ccccc3)n(Cc3ccc(F)cc3)c2c1
inhibition (Homo sapiens [6]): 32.4%

Cc1cc(C(N)=O)ccc1-n1c(-c2ccc(-c3ccc(=O)[nH]c3)cc2)cc2ccc(C(=O)O)cc21
inhibition (Homo sapiens [1]): 5.7%

CCOc1cc(-n2c(-c3ccc(-n4ccnc4)cc3)cc3ccc(C(=O)OC)cc32)ccc1C(N)=O
half-life [7]: 59.4 min
Tmax [8]: 4.8 min
Activity (SH-SY5Y [9]): Dose-dependent-effect
permeability [10]: Permeable
MRT last [11]: 66 min
CLint scaled [12]: 15.8 mL/min/kg
half-life at 1 µM [13]: 257 min
bioavailability [14]: 11.2%
Activity (SH-SY5Y [15]): Active
Activity (Rattus norvegicus [16]): Active
Activity (Rattus norvegicus [3]): 24.39%
half-life [17]: 36 min
Cmax [18]: 11600 ng/mL
Activity (Rattus norvegicus [19]): Active
Activity (Rattus norvegicus [4]): 12.74%
MRT last [20]: 42.6 min
half-life [21]: 76.2 min
Activity (SH-SY5Y [5]): Active
clearance [22]: 20.9 mL/min/kg
half-life [23]: 158 min
MRT last [24]: 47.4 min
AUC(0-t) [25]: 8040 ng·h/mL
Activity (Rattus norvegicus [26]): Active
inhibition (Homo sapiens [1]): 16.4%
Activity (Rattus norvegicus [27]): Active

Cc1cc(C(N)=O)ccc1-n1c(-c2ccc(-c3cn(C)nc3C(F)(F)F)cc2)cc2ccc(C(=O)O)cc21
inhibition (Homo sapiens [1]): 0.93%

Cc1cc(C(N)=O)ccc1-n1c(-c2ccc(-n3ccnc3)cc2)cc2ccc(C(=O)O)cc21
IC50 [2]: 192 nM
inhibition (Homo sapiens [1]): 81.2%

CN(C)S(=O)(=O)c1ccc(Cn2c(-c3ccc(-n4ccnc4)cc3)cc3ccc(C(=O)O)cc32)cc1
inhibition (Homo sapiens [1]): 94.3%

NC(=O)c1cccc(Cn2c(-c3ccc(-n4ccnc4)cc3)cc3ccc(C(=O)O)cc32)c1
inhibition (Homo sapiens [1]): 3.84%

N#Cc1ccc(-n2c(-c3ccc(-n4ccnc4)cc3)cc3ccc(C(=O)O)cc32)cc1
inhibition (Homo sapiens [1]): 22.4%
